Results on 37 molecules are retold here after the supplement of paper PMC3493320.

What is called IC50 is the concentration at which inhibition is half-maximal.

In the experiment the test system is NCI-H295R. The experiment in a line: IC50 (antiproliferative, ATP content). The following applies: 48 h. In a few lines: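 Cell viability of adrenocortical carcinoma cells was assessed as ATP by CellTiter-Glo luminescence. Cells at 1500 per well in 1536-well plates, in serum-free DMEM with ITS, received compounds by pin transfer at 8 final concentrations (0.6 nM–46 µM) after overnight culture and were then held 48 h at 37 °C, 5% CO2. IC50 was calculated by logistic fitting against vehicle and positive-control wells, compounds with no concentration response being recorded as above the top dose.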
In turn, `CC(=O)CC(c1ccc([N+](=O)[O-])cc1)c1c(O)c2ccccc2oc1=O` (configuration not stated) registered an IC50 above 46 µM.
Under `CCOC(=O)NC(O)C(Cl)(Cl)Cl` (configuration not stated) stands above 46 µM; under `NC(CS)C(=O)O` (configuration not stated), above 46 µM; under `CC(C)NCC(O)c1ccc(NS(C)(=O)=O)cc1.Cl` (configuration not stated), above 46 µM.
With `OCC(O)CN1CCN(c2ccccc2)CC1` (configuration not stated) the figure was above 46 µM; with `C[C@]12CC[C@@H]3c4ccc(O)cc4CC[C@H]3[C@@H]1CC[C@@H]2OP(=O)(O)O`, above 46 µM.
Under `CCCCCCCCCCCCCC[n+]1ccc(C)cc1.[Cl-]` stands above 46 µM; under `CC1=C(/C=C/C(C)=C/C=C/C(C)=C/C=C/C=C(C)/C=C/C=C(C)/C=C/C2=C(C)C(=O)CCC2(C)C)C(C)(C)CCC1=O`, above 46 µM; under `CC1Cc2ccccc2N1NC(=O)c1ccc(Cl)c(S(N)(=O)=O)c1` (configuration not stated), above 46 µM.
Regarding `C=C1c2cccc(O)c2C(=O)C2=C(O)[C@]3(O)C(=O)C(C(N)=O)=C(O)[C@@H](N(C)C)[C@@H]3[C@@H](O)[C@H]12.Cl`, the IC50 was above 46 µM.
`O=C(NCNC(=O)NC1C(=O)NC(=O)N1CO)NC1C(=O)NC(=O)N1CO` (configuration not stated): the IC50 was above 46 µM.
With `CN1CCN(C2=Nc3ccccc3Sc3ccc(Cl)cc32)CC1` the figure was above 46 µM; with `CCN(CC)CCCC(C)Nc1cc(C=Cc2ccccc2Cl)nc2cc(Cl)ccc12` (configuration not stated), above 46 µM.
Under `Cl.O=C(COc1ccc(Cl)cc1)N1CCN(Cc2ccc3c(c2)OCO3)CC1` stands above 46 µM; under `O=C(O)c1ccc(OCCn2ccnc2)cc1`, above 46 µM.
Under `CN1CCOC(c2ccccc2)c2ccccc2C1.Cl` (configuration not stated) stands above 46 µM.
`N#CC2=CC=C1[C@@](OCC1=C2)([C@]3=CC=C(C=C3)F)CCCN(C)C.OC(C(O)=O)=O`: the IC50 was above 46 µM.
With `CC/C=C\C/C=C\C/C=C\CCCCCCCC(=O)O` the figure was above 46 µM; with `CCCCCCCCCCCC(=O)OCC(O)CO` (configuration not stated), above 46 µM.
Under `OC(CCN1CCCCC1)(c1ccccc1)c1ccccc1` stands above 46 µM; under `C[C@]12C=CC(=O)C=C1[C@@H](F)C[C@@H]1[C@@H]2[C@@H](O)C[C@@]2(C)[C@H]1CC[C@]2(O)C(=O)CO`, above 46 µM; under `CN(C)C(=O)Oc1cc(OC(=O)N(C)C)cc(C(O)CNC(C)(C)C)c1.Cl` (configuration not stated), above 46 µM.
Under `O=C([O-])P(=O)([O-])[O-].[Na+].[Na+].[Na+]` stands above 46 µM; under `FC(F)(F)C(Cl)Br` (configuration not stated), above 46 µM.
The molecule `CC12CCC(C[N+](C)(CCC[N+](C)(C)C)C1)C2(C)C.COS(=O)(=O)[O-].COS(=O)(=O)[O-]` (configuration not stated) had an IC50 above 46 µM.
Under `COC1CC(=C(c2cccs2)c2cccs2)C[N+](C)(C)C1.[Br-]` (configuration not stated) stands above 46 µM; under `COc1cc(C(=O)N2CCCCCCC2)cc(OC)c1OC`, above 46 µM; under `ClCC1CO1` (configuration not stated), above 46 µM.
Take `CCN(CC)CCC(=O)N1c2ccccc2Sc2ccc(Cl)cc21`: the IC50 was above 46 µM.
Consider `CCC(=O)O[C@H]1CC[C@H]2[C@@H]3CCC4=CC(=O)CC[C@]4(C)[C@H]3CC[C@]12C`, for which the IC50 was above 46 µM.
With `CCC1(C)CC(=O)NC1=O` (configuration not stated) the figure was above 46 µM.
With `COc1ccc(-c2noc(CC(=O)O)c2-c2ccc(OC)cc2)cc1` the figure was above 46 µM.
Under `CCC(C)(Oc1ccc(C2(c3ccc(OC(C)(CC)C(=O)O)cc3)CCCCC2)cc1)C(=O)O` (configuration not stated) stands above 46 µM.
Turning to `O=P([O-])(O)C(O)(Cc1cccnc1)P(=O)([O-])O.[Na+].[Na+]`, the IC50 was above 46 µM.
`Cc1cc(NS(=O)(=O)c2ccc(N)cc2)nc(C)n1` showed an IC50 above 46 µM.
With `CC(=O)Nc1nnc(S(N)(=O)=O)s1` the figure was above 46 µM.
With `CO/N=C(\C(=O)N[C@@H]1C(=O)N2C(C(=O)[O-])=CCS[C@H]12)c1csc(N)n1.[Na+]` the figure was above 46 µM.
